Drawing on patent publication US10927086B2, “Substituted sulfoximine compounds as indoleamine 2,3-dioxygenase (IDO) inhibitors” (Merck Sharp & Dohme Corp., priority 2017, dated 2021), this text covers IC50 for 35 compounds.

Assay [1] has as its target T1, IDO1 (Homo sapiens (Human), UniProt P14902). Briefly: IDO1 Enzyme Assay. The following applies: HIS-tagged recombinant IDO1, fluorescence readout. Format: biochemical. The procedure: Compounds to be tested were serially diluted in ten 3-fold steps in DMSO starting from 10 mM DMSO stocks. Compound dilutions or DMSO alone were then dispensed from the dilution plate into a Greiner black 384-well assay plate (catalog #781086) using an Echo 555 acoustic liquid handler (Labcyte).
HIS-tagged IDO1 protein was recombinantly expressed in Escherichia coli using ZYP5052 autoinduction media supplemented with 500 μM delta aminolevulinic acid for 48 h at 16° C. IDO1 protein was purified using Ni^2+-affinity resin and size exclusion chromatography. Purified protein was then diluted in assay buffer (50 mM Tris pH 7.0, 1% glycerol, 20 μM methylene blue, 0.05% Tween-20, 20 mM sodium ascorbate, 100 units/mL catalase to obtain a final IDO1 concentration of 40 nM. IDO1 solution […] or buffer alone ([…]) were dispensed to wells of the assay plate using a BioRAPTR liquid dispenser (Beckman Coulter). Assay plates containing compound and IDO1 enzyme were incubated at RT for 30 min. Afterwards, 10 μL of 400 μM tryptophan in assay buffer were added to each well of the assay plate using a BioRAPTR liquid dispenser. Plates were incubated at RT for 60 min and reactions were quenched by addition of 10 μL of 0.5 M methyl isonipecotate in dimethyl sulfoxide. Plates were sealed and incubated at 37° C. for 4 h or 50° C. for 2 h. The plates are allowed to cool and then centrifuged for 1 min at 1000×g. The resulting fluoresence was measured in an Envision plate reader (Perkin Elmer) with a 400/25 nm excitation filter and an 510/20 nm emission filter.
Potencies were calculated by linear least squares fit to the four parameter logistic IC50 equation.
Target sequence in this assay (P14902 whole entry, species assumed): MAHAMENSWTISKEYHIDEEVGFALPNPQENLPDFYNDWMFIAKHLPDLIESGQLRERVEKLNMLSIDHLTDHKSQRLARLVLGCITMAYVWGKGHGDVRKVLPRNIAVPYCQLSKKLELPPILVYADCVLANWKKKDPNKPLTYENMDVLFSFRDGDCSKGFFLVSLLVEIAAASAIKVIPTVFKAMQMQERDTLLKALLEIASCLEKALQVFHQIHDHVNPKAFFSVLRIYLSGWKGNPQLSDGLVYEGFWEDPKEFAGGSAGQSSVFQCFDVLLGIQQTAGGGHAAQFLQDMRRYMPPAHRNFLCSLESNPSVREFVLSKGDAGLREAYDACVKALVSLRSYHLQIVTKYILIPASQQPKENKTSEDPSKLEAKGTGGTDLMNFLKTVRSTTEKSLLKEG

For assay [2], the target named is T1, IDO1. In words: IDO1 Cellular Assay in Hela Cells Stimulated with IFNγ. Format: cell-based. The note with it: about 48 hours, read-out: IDO1 HELA Cell Assay, IC50. As for the experimental part:
Hela cells were cultured in complete Hela culture medium (90% EMEM, 10% heat-inactivated fetal bovine serum) and expanded to about 1×10^9 cells. The cells were then collected and frozen down at 10×10^6 cells/vial in 1 mL frozen medium (90% complete Hela culture medium, 10% DMSO)
Compounds to be tested were serially diluted in ten 3-fold steps in DMSO starting from 10 mM DMSO stocks in Echo low volume plate(s). Compound dilutions or DMSO alone were then dispensed from the dilution plate(s) into Greiner black 384-well assay plate(s) (catalog #781086, 50 nL/well) using an Echo 550 acoustic liquid handler (Labcyte).
Frozen Hela cells were thawed and transferred into Hela assay medium (99% complete Hela culture medium, 1% Pen/Strep) with 20 mL medium/vial of cells. The cells were spun down at 250 g in a table top centrifuge for 5 min and suspended in same volume of Hela assay medium. The cells were then counted and adjusted to a density of 2×10^5 cells/ml in Hela assay medium. Sterile L-tryptophan were added to the cells with final concentration of 300 uM L-tryptophan. A small aliquot (2 mL/plate) of Hela cells were set aside and were not treated with IFNγ, to serve as the Max-E control. The rest of Hela cells were added with sterile IFNγ (Cat #285-IF, R & D systems) with a final concentration of 100 ng/mL.
Hela cells with and without IFNγ were dispensed to the respective wells of 384-well assay plates containing the compounds. The plates were incubated for about 48 hours at a 37° C., 5% CO2 incubator. Afterwards, 12 μL of 0.5 M methyl isonipecotate in dimethyl sulfoxide were added into each well and the plates were sealed and incubated at 37° C. without CO2 overnight. The plates were centrifuged for 1 min at 200×g. The resulting fluorescence was measured in a Spectramax plate reader (Molecular Devices) with a 400 nm excitation filter and a 510 nm emission filter.
The fluorescence intensity of each well was corrected for the background observed in wells with non-IFNγ-treated cells and was expressed as a fraction of the intensity observed in wells of IFNγ-treated cells and DMSO only. Potencies were calculated by linear least squares fit to the four parameter logistic IC50 equation.
Target sequence in this assay (P14902 whole entry): as the sequence (P14902 whole entry, species assumed) above

Consider `N=S(=O)(CCO)CCNc1nonc1/C(=N/O)N[C@H]1Cc2ccc(F)cc21` (single isomer, unassigned) [Example 8], for which the IC50 at IDO1 [1] came out at 43.5 nM; on IDO1 [2], 30.5 nM.
`CS(=N)(=O)CCNC(=O)CNc1nonc1/C(=N/O)N[C@H]1Cc2ccc(F)cc21` (single isomer, unassigned) [Example 13]: the IC50 at IDO1 [1] was 58.2 nM; at IDO1 [2], 95.5 nM.
Taken in the same sequence, the figures for `CS(=N)(=O)CCNC(=O)CNc1nonc1/C(=N/O)N[C@H]1Cc2ccc(F)cc21` (single isomer, unassigned) [Example 14] were 63.8 nM and 103 nM.
In the case of `CS(=N)(=O)N1CCC(Nc2nonc2/C(=N/O)N[C@H]2Cc3ccc(F)cc32)CC1` (single isomer, unassigned) [Example 18], the 50% inhibitory concentration (IC50) came to 68.3 nM on IDO1 [1] and 69.9 nM at IDO1 [2].
For the compound `CS(=N)(=O)N1CCC(Nc2nonc2/C(=N/O)N[C@H]2Cc3ccc(F)cc32)CC1` (single isomer, unassigned) [Example 19], the IC50 at IDO1 [1] was found to be 67.2 nM; at IDO1 [2] it was 62.1 nM.
Take `N=S1(=O)CCC1CNc1nonc1/C(=N/O)N[C@H]1Cc2ccc(F)cc21` (single isomer, unassigned) [Example 22]: the IC50 amounted to 137 nM on IDO1 [1] and 81.5 nM on IDO1 [2].
With `N=S1(=O)CCC1CNc1nonc1/C(=N/O)N[C@H]1Cc2ccc(F)cc21` (single isomer, unassigned) [Example 23], the IC50 came to 143 nM at IDO1 [1] and 99.4 nM on IDO1 [2].
As to `CS(=N)(=O)CCCNc1nonc1/C(=N/O)N[C@H]1Cc2ccc(F)cc21` (single isomer, unassigned) [Example 24], the values for the IC50 on IDO1 [1] and on IDO1 [2] were 35.4 nM and 39.9 nM, respectively.
For `CS(=N)(=O)CCCNc1nonc1/C(=N/O)N[C@H]1Cc2ccc(F)cc21` (single isomer, unassigned) [Example 25], the IC50 on IDO1 [1] stood at 31.2 nM; at IDO1 [2], 42.7 nM.
Taken in the same sequence, the figures for `CS(=N)(=O)CC(O)CNc1nonc1/C(=N/O)N[C@H]1Cc2ccc(F)cc21` (single isomer, unassigned) [Example 26] were 53.7 nM and 99.9 nM.
`CS(=N)(=O)CC(O)CNc1nonc1/C(=N/O)N[C@H]1Cc2ccc(F)cc21` (single isomer, unassigned) [Example 27]: the IC50 at IDO1 [1] came to 43.3 nM; at IDO1 [2] it was 129 nM.
On to `CS(=N)(=O)CC(O)CNc1nonc1/C(=N/O)N[C@H]1Cc2ccc(F)cc21` (single isomer, unassigned) [Example 28], for which the figures for the IC50 at IDO1 [1] and on IDO1 [2] were 60.7 nM and 110 nM, respectively.
`CS(=N)(=O)CC(O)CNc1nonc1/C(=N/O)N[C@H]1Cc2ccc(F)cc21` (single isomer, unassigned) [Example 29]: the 50% inhibitory concentration (IC50) at IDO1 [1] turned out to be 70.4 nM; at IDO1 [2] it was 123 nM.
As for `C[S@@](=N)(=O)CCCOc1nonc1/C(=N/O)NC1Cc2ccc(F)cc21` (single isomer, unassigned) [Example 30], the IC50 at IDO1 [1] was determined as 231 nM; on IDO1 [2], 384 nM.
For `C[S@@](=N)(=O)CCCOc1nonc1/C(=N/O)NC1Cc2ccc(F)cc21` (single isomer, unassigned) [Example 31], the IC50 at IDO1 [1] came to 213 nM; at IDO1 [2] it was 356 nM.
In the case of `CS(=N)(=O)CCCCOc1nonc1/C(=N/O)N[C@H]1Cc2ccc(F)cc21` (single isomer, unassigned) [Example 32], the results for the IC50 at IDO1 [1] and on IDO1 [2] were 178 nM and 241 nM, respectively.
Taken in the same sequence, the figures for `CS(=N)(=O)CCCCOc1nonc1/C(=N/O)N[C@H]1Cc2ccc(F)cc21` (single isomer, unassigned) [Example 33] were 184 nM and 288 nM.
Consider `CN=S(C)(=O)CCNc1nonc1/C(=N/O)N[C@H]1Cc2ccc(F)cc21` (single isomer, unassigned) [Example 34], for which the IC50 at IDO1 [1] came out at 59.8 nM; at IDO1 [2], 77 nM.
Taken in the same sequence, the figures for `CN=S(C)(=O)CCNc1nonc1/C(=N/O)N[C@H]1Cc2ccc(F)cc21` (single isomer, unassigned) [Example 35] were 81.6 nM and 43.2 nM.
For `CS(=N)(=O)N1CC(O)(CNc2nonc2/C(=N/O)N[C@H]2Cc3ccc(F)cc32)C1` (single isomer, unassigned) [Example 37], the half-maximal inhibitory concentration (IC50) at IDO1 [1] was 108 nM; at IDO1 [2], 312 nM.
Turning to `CS(=N)(=O)CCCCNc1nonc1/C(=N/O)N[C@H]1Cc2ccc(F)cc21` (single isomer, unassigned) [Example 38], the IC50 on IDO1 [1] was found to be 47.2 nM; at IDO1 [2], 26.7 nM.
Turning to `CS(=N)(=O)CCCCNc1nonc1/C(=N/O)N[C@H]1Cc2ccc(F)cc21` (single isomer, unassigned) [Example 39], the values for the IC50 on IDO1 [1] and at IDO1 [2] were 50.8 nM and 35.7 nM, respectively.
With `CS(=N)(=O)N1CC(Oc2nonc2/C(=N/O)N[C@H]2Cc3ccc(F)cc32)C1` (single isomer, unassigned) [Example 42], the values for the IC50 on IDO1 [1] and on IDO1 [2] were 56.8 nM and 43.6 nM, respectively.
Taken in the same sequence, the figures for `CS(=N)(=O)N1CCC(Nc2nonc2/C(=N/O)N[C@H]2Cc3ccc(F)cc32)C1` (single isomer, unassigned) [Example 43] were 169 nM and 157 nM.
Regarding `CS(=N)(=O)N1CCC(Nc2nonc2/C(=N/O)N[C@H]2Cc3ccc(F)cc32)C1` (single isomer, unassigned) [Example 44], the IC50 on IDO1 [1] came out at 220 nM; at IDO1 [2], 219 nM.
Consider `CS(=N)(=O)N1CCC(Nc2nonc2/C(=N/O)N[C@H]2Cc3ccc(F)cc32)C1` (single isomer, unassigned) [Example 45], for which the figures for the IC50 at IDO1 [1] and at IDO1 [2] were 107 nM and 85 nM, respectively.
For the compound `CS(=N)(=O)N1CCC(Nc2nonc2/C(=N/O)N[C@H]2Cc3ccc(F)cc32)C1` (single isomer, unassigned) [Example 46], the half-inhibitory concentration (IC50) was determined as 175 nM on IDO1 [1] and 153 nM on IDO1 [2].
With `CS(=N)(=O)CCOCCNc1nonc1/C(=N/O)N[C@H]1Cc2ccc(F)cc21` (single isomer, unassigned) [Example 47], the values for the IC50 at IDO1 [1] and on IDO1 [2] were 154 nM and 196 nM, respectively.
Consider `CS(=N)(=O)CCOCCNc1nonc1/C(=N/O)N[C@H]1Cc2ccc(F)cc21` (single isomer, unassigned) [Example 48], for which the IC50 at IDO1 [1] was found to be 119 nM; at IDO1 [2] it was 144 nM.
In the case of `CS(=N)(=O)CC(=O)N1CC(Oc2nonc2/C(=N/O)N[C@H]2Cc3ccc(F)cc32)C1` (single isomer, unassigned) [Example 49], the values for the IC50 at IDO1 [1] and at IDO1 [2] were 112 nM and 99.5 nM, respectively.
`CS(=N)(=O)CC(=O)N1CC(Oc2nonc2/C(=N/O)N[C@H]2Cc3ccc(F)cc32)C1` (single isomer, unassigned) [Example 50]: the results for the IC50 at IDO1 [1] and on IDO1 [2] were 111 nM and 153 nM, respectively.
The like results for `CS(=N)(=O)NCCOc1nonc1/C(=N/O)N[C@H]1Cc2ccc(F)cc21` (single isomer, unassigned) [Example 51] were, in that order, 262 nM and 317 nM.
Consider `CS(=N)(=O)NCCOc1nonc1/C(=N/O)N[C@H]1Cc2ccc(F)cc21` (single isomer, unassigned) [Example 52], for which the IC50 on IDO1 [1] was 175 nM; on IDO1 [2], 148 nM.
With `CS(=N)(=O)NCC(O)CNc1nonc1/C(=N\O)N[C@H]1Cc2ccc(F)cc21` (single isomer, unassigned) [Example 55], the IC50 on IDO1 [1] amounted to 92.9 nM; at IDO1 [2], 117 nM.
Take `CS(=N)(=O)NCC(O)CNc1nonc1/C(=N\O)N[C@H]1Cc2ccc(F)cc21` (single isomer, unassigned) [Example 56]: the IC50 on IDO1 [1] was determined as 107 nM; at IDO1 [2], 162 nM.
